The results in this text go back to ChEMBL document CHEMBL1144506, “Fujita-Ban QSAR analysis and CoMFA study of quinoline antagonists of immunostimulatory CpG-oligodeoxynucleotides” (Bioorg Med Chem, 2007).

What is called EC50 is the concentration at which the effect is half-maximal. High values mean lower potency in that assay, low ones higher potency in that assay.

The assay relates to WEHI. The assay is described as follows: Inhibition of CpG-oligodeoxynucleotides-induced immunostimulation in mouse WEHI 231 cells. The assay is classed as functional, cell-based. To be noted: for EC50: Mus musculus, WEHI.

Where “and” joins values, the source holds several entries; their conditions need not be identical. Equal entries are not always repeated.

The compound `CN(C)CCCNc1cc(-c2ccc(CN3CCN(C)CC3)cc2)nc2ccccc12` had an EC50 of 9.12 nM.
The same measure, in the same setting: then `CN(C)CCNc1cc(-c2ccc(C(F)(F)F)cc2)nc2ccccc12`, with 155 nM; and `CN1CCN(Cc2cc(Nc3cc(-c4ccc(F)cc4)nc4ccccc34)cc(CN3CCN(C)CC3)c2O)CC1`, with 1.74 nM.
The same measure, in the same setting: the same measure for `CN1CCN(c2cc(-c3ccc4ccccc4c3)nc3ccc(-c4ccccc4)cc23)CC1`: 741 nM; for `Oc1ccc(Nc2cc(-c3ccc4ccccc4c3)nc3ccccc23)cc1`: 316 nM; for `Cc1ccc(-c2cc(NCCN(C)C)c3ccccc3n2)cc1`: 12.3 nM.
The same measure, in the same setting: then `CN(C)CCNc1cc(-c2ccc3ccccc3c2)nc2ccccc12`, with 9.12 nM.
Turning to `CN(C)CCNc1cc(-c2ccc(CN3CCN(C)CC3)cc2)nc2ccccc12`, it took 7.08 nM to reach a half-maximal effect (EC50).
On the same count and under the same terms, the same measure for `CN(C)CCCNc1cc(-c2ccccc2F)nc2ccccc12`: 107 nM; for `CN1CCN(CCNc2cc(-c3ccc(N4CCN(C)CC4)cc3)nc3ccccc23)CC1`: 1.51 nM; for `CN1CCCC1CCNc1cc(-c2ccc(F)cc2)nc2ccccc12` (stereo not drawn): 13.2 nM.
On the same count and under the same terms, then `Oc1c(CN2CCCC2)cc(Nc2cc(-c3ccc4ccccc4c3)nc3ccccc23)cc1CN1CCCC1`, with 1.15 nM; and `CN(C)CCNc1cc(-c2ccccc2F)nc2ccc(F)cc12`, with 417 nM; and `CN(C)CCNc1cc(-c2ccc(N3CCCCC3)cc2)nc2ccccc12`, with 5.37 nM.
Still for that read-out and setting: then `CN(C)CCNc1cc(-c2ccc(C(F)(F)F)cc2)nc2ccc(F)cc12`, with 407 nM; and `c1cc(CNCCCN2CCOCC2)cc(-c2cc(NCCN3CCOCC3)c3ccccc3n2)c1`, with 12 nM.
For the compound `CN1CCN(CCNc2cc(-c3ccc(F)cc3)nc3ccccc23)CC1`, the response was half-maximal at 18.6 nM (EC50).
Still for that read-out and setting: then `Cc1ccc(-c2cc(NCCCN3CCN(C)CC3)c3ccccc3n2)cc1`, with 13.8 nM; and `COc1ccc(-c2cc(NCCN(C)C)c3ccc(C(F)(F)F)cc3n2)cc1F`, with 407 nM; and `Cc1ccc(-c2cc(NCCN3CCOCC3)c3ccccc3n2)cc1`, with 490 nM.
On the same count and under the same terms, then `CN(C)CCCCCCNc1cc(-c2ccc(F)cc2)nc2ccccc12`, with 20.4 nM; and `Cc1ccc(-c2cc(Nc3cc(CN4CCN(C)CC4)c(O)c(CN4CCN(C)CC4)c3)c3ccccc3n2)cc1`, with 1.45 nM.
The same measure, in the same setting: then `Cc1cccc(-c2cc(NCCCN3CCCC3)c3ccccc3n2)c1`, with 195 nM; and `CN1CCN(CCCNc2cc(-c3ccc(CN4CCN(C)CC4)cc3)nc3ccccc23)CC1`, with 6.76 nM.
The compound `Fc1ccc(-c2cc(NCCN3CCOCC3)c3ccccc3n2)cc1` showed an EC50 of 417 nM.
Still for that read-out and setting: the same measure for `Cc1cccc(-c2cc(NCCN3CCOCC3)c3ccccc3n2)c1`: 646 nM; for `c1ccc2cc(-c3cc(NCCCN4CCCC4)c4ccccc4n3)ccc2c1`: 13.5 nM; for `CN(C)CCCCNc1cc(-c2ccccc2NCCN(C)C)nc2ccccc12`: 5.89 nM.
On the same count and under the same terms, then `CN(C)CCCNc1cc(-c2cccc(CNCCCN3CCOCC3)c2)nc2ccccc12`, with 52.5 nM; and `Fc1ccc(-c2cc(NCCN3CCCC3)c3ccccc3n2)cc1`, with 24 nM; and `CN(C)CCNc1cc(-c2ccccc2N2CCN(C)CC2)nc2ccc(F)cc12`, with 13.2 nM.
`Cc1ccc(-c2cc(Nc3cc(CN4CCCC4)c(O)c(CN4CCCC4)c3)c3ccccc3n2)cc1` showed an EC50 of 1.78 nM.
Same read-out and setting: then `Fc1ccc(-c2cc(NCCCN3CCOCC3)c3ccccc3n2)cc1`, with 67.6 nM; and `CN1CCN(c2ccc(-c3cc(NCCN4CCCC4)c4ccccc4n3)cc2)CC1`, with 2.4 nM.
For `CN(C)CCCCNc1cc(-c2ccc(F)cc2)nc2ccccc12`, the “Log EC50” value (wehi) was -8.26 and -7.76.
For the compound `CN(C)CCCCNc1cc(-c2ccc(N3CCCCC3)cc2)nc2ccccc12`, the EC50 was 46.8 nM.
The same measure, in the same setting: the same measure for `CN(C)CCNc1cc(-c2ccc3ccccc3c2)nc2ccc(-c3ccccc3)cc12`: 6.46 nM.
Still for that read-out and setting: the same measure for `CN1CCN(Cc2ccc(-c3cc(N4CCN(C)CC4)c4ccccc4n3)cc2)CC1`: 58.9 nM; for `CN(C)CCCCCNc1cc(-c2ccc(N3CCN(C)CC3)cc2)nc2ccccc12`: 1.45 nM; for `COc1ccc(-c2cc(NCCN(C)C)c3ccccc3n2)cc1F`: 35.5 nM.
Still for that read-out and setting: the same measure for `Fc1ccc(-c2cc(NCCCCN3CCCC3)c3ccccc3n2)cc1`: 20.9 nM.
For the compound `CN(C)CCCNc1cc(-c2ccc3ccccc3c2)nc2ccccc12`, the EC50 was 11 nM.
The same measure, in the same setting: the same measure for `CN(C)CCCCCNc1cc(-c2ccc(F)cc2)nc2ccccc12`: 15.5 nM.
The same measure, in the same setting: the same measure for `CN1CCN(Cc2cc(Nc3cc(-c4ccc5ccccc5c4)nc4ccccc34)cc(CN3CCN(C)CC3)c2O)CC1`: 0.24 nM.
The compound `CN1CCN(c2ccc(-c3cc(N4CCN(C)CC4)c4ccccc4n3)cc2)CC1` had an EC50 of 2.69 nM.
As to `CN1CCN(Cc2cccc(-c3cc(N4CCN(C)CC4)c4ccccc4n3)c2)CC1`, the half-maximal effective concentration (EC50) is 100 nM.
On the same count and under the same terms, the same measure for `CN(C)CCNc1cc(-c2ccccc2Cl)nc2ccccc12`: 162 nM.
The same measure, in the same setting: then `Fc1ccc(-c2cc(NCCCN3CCCC3)c3ccccc3n2)cc1`, with 191 nM; and `CCN1CCCC1CNc1cc(-c2ccc(C)cc2)nc2ccccc12` (stereo not drawn), with 21.9 nM.
Same read-out and setting: the same measure for `CN(C)CCCNCc1cccc(-c2cc(NCCCN3CCN(C)CC3)c3ccccc3n2)c1`: 525 nM; for `c1ccc2cc(-c3cc(NCCCN4CCOCC4)c4ccccc4n3)ccc2c1`: 3.55 nM.
With `Cc1cccc(-c2cc(NCCCN3CCOCC3)c3ccccc3n2)c1`, the EC50 was 50.1 nM.
On the same count and under the same terms, the same measure for `CN1CCN(Cc2ccc(-c3cc(NCCN4CCCC4)c4ccccc4n3)cc2)CC1`: 3.24 nM; for `CN(C)CCNc1cc(-c2ccc(N3CCN(C)CC3)cc2)nc2ccc(Cl)cc12`: 1.45 nM.
As for `CN(C)CCNc1ccccc1-c1cc(NCCN(C)C)c2ccccc2n1`, a half-maximal effect (EC50) was put at 6.46 nM.
The same measure, in the same setting: then `Cc1cccc(-c2cc(NCCCN3CCN(C)CC3)c3ccccc3n2)c1`, with 27.5 nM; and `CN(C)CCCNc1cc(-c2cccc(CN3CCN(C)CC3)c2)nc2ccccc12`, with 3.98 nM; and `CN1CCN(c2ccc(-c3cc(NCCCCN4CCCC4)c4ccccc4n3)cc2)CC1`, with 5.5 nM.
The same measure, in the same setting: the same measure for `CN(C)CCCCNc1cc(-c2ccccc2F)nc2ccccc12`: 107 nM; for `CCN1CCCC1CNc1cc(-c2ccc(F)cc2)nc2ccccc12` (stereo not drawn): 17 nM; for `CN(C)CCNc1cc(-c2ccc(N3CCN(C)CC3)cc2)nc2ccccc12`: 0.759 nM.
Still for that read-out and setting: the same measure for `Cc1cccc(-c2cc(NCCCN(C)C)c3ccccc3n2)c1`: 13.2 nM.
As for `CN(C)CCCCCCNc1cc(-c2ccc(N3CCN(C)CC3)cc2)nc2ccccc12`, the EC50 was 1.91 nM.
In the case of `COc1ccc(-c2cc(NCCN(C)C)c3cc(F)ccc3n2)cc1F`, the midpoint of the response, the EC50, lay at 79.4 nM.
Still for that read-out and setting: then `Cc1ccc(-c2cc(NCCCN(C)C)c3ccccc3n2)cc1`, with 11.5 nM; and `CN1CCN(CCCCNc2cc(-c3ccc(N4CCN(C)CC4)cc3)nc3ccccc23)CC1`, with 4.9 nM; and `CN(C)CCNc1cc(-c2ccc(F)cc2)nc2ccc(Cl)cc12`, with 52.5 nM.
The same measure, in the same setting: then `CN(C)CCCCCCNc1cc(-c2ccc3ccccc3c2)nc2ccccc12`, with 5.89 nM; and `CN(C)CCNc1cc(-c2ccccc2Cl)nc2ccc(Cl)cc12`, with 468 nM; and `CN(C)CCCCNc1cc(-c2ccc3ccccc3c2)nc2ccccc12`, with 3.72 nM.
With `CCN(CC)CCNc1cc(-c2cccc(C)c2)nc2ccccc12`, the EC50 is 22.4 nM.
Still for that read-out and setting: then `COc1ccc(C2C=C(NCCN(C)C)c3cc(F)ccc3N2)c(F)c1` (stereo not drawn), with 141 nM; and `CN1CCN(c2ccc(-c3cc(NCCCN4CCOCC4)c4ccccc4n3)cc2)CC1`, with 2.19 nM; and `CN1CCCC1CCNc1cc(-c2ccc3ccccc3c2)nc2ccccc12` (stereo not drawn), with 2.04 nM.
The same measure, in the same setting: then `CN(C)CCCNc1cc(-c2cccc(CNCCN3CCOCC3)c2)nc2ccccc12`, with 20.4 nM; and `CN1CCN(Cc2cccc(-c3cc(NCCCN4CCCC4)c4ccccc4n3)c2)CC1`, with 120 nM.
On the same count and under the same terms, the same measure for `CN(C)CCNc1cc(-c2cccc(F)c2)nc2cc(C(F)(F)F)ccc12`: 550 nM; for `CN(C)CCCNc1cc(-c2ccc(N3CCN(C)CC3)cc2)nc2ccccc12`: 1 nM; for `Cc1ccc(-c2cc(Nc3ccc(O)cc3)c3ccccc3n2)cc1`: 151 nM.
The compound `Cc1ccc(-c2cc(NCCCN3CCOCC3)c3ccccc3n2)cc1` had an EC50 of 26.9 nM.
Same read-out and setting: the same measure for `CN(C)CCNc1cc(-c2ccc(F)cc2)nc2ccccc12`: 51.3 nM; for `CN(C)CCNc1cc(-c2ccc(F)cc2)nc2cc(C(F)(F)F)ccc12`: 490 nM.
Same read-out and setting: then `CN1CCCC1CCNc1cc(-c2ccccc2F)nc2ccccc12` (stereo not drawn), with 204 nM; and `Cc1ccccc1-c1cc(NCCCN2CCOCC2)c2ccccc2n1`, with 646 nM; and `CCN(CC)CCNc1cc(-c2ccc(C)cc2)nc2ccccc12`, with 18.6 nM.
The same measure, in the same setting: then `CN(C)CCNc1cc(-c2cccc(F)c2)nc2ccc(F)cc12`, with 282 nM; and `CCN1CCCC1CNc1cc(-c2cccc(C)c2)nc2ccccc12` (stereo not drawn), with 21.9 nM.
Regarding `Cc1ccccc1-c1cc(NCCCN(C)C)c2ccccc2n1`, the EC50 was 186 nM.
Same read-out and setting: then `Cc1cccc(-c2cc(NCCC3CCCN3C)c3ccccc3n2)c1` (stereo not drawn), with 14.1 nM.
Same read-out and setting: the same measure for `CN(C)CCNc1cc(-c2ccccc2N2CCN(C)CC2)nc2ccccc12`: 38.9 nM.
On the same count and under the same terms, the same measure for `Cc1ccc(-c2cc(NCCCN3CCCC3)c3ccccc3n2)cc1`: 105 nM; for `Cc1cccc(-c2cc(NCCCCN(C)C)c3ccccc3n2)c1`: 13.8 nM.
`CN1CCN(c2ccc(-c3cc(NCCN4CCOCC4)c4ccccc4n3)cc2)CC1`: the EC50 was 3.31 nM.
Same read-out and setting: then `CN1CCN(Cc2cccc(-c3cc(NCCC4CCCN4C)c4ccccc4n3)c2)CC1` (stereo not drawn), with 7.76 nM; and `c1cc(CNCCN2CCOCC2)cc(-c2cc(NCCCN3CCCC3)c3ccccc3n2)c1`, with 537 nM.
The same measure, in the same setting: the same measure for `CN(C)CCCNCc1cccc(-c2cc(NCCN3CCOCC3)c3ccccc3n2)c1`: 155 nM.
`CCN1CCCC1CNc1cc(-c2ccc3ccccc3c2)nc2ccccc12` (stereo not drawn) gave a half-maximal effective concentration (EC50) of 5.37 nM.
The same measure, in the same setting: the same measure for `CN1CCN(CCCCNc2cc(-c3ccc(F)cc3)nc3ccccc23)CC1`: 15.8 nM.
